The test system of this data set is Caco-2 cells. Description: Caco-2 permeability. It counts as in vitro ADME. The following applies: bidirectional Caco-2 assay. Here is the method: Caco-2 cells were seeded onto Millipore Multiscreen plates at 1×10^5 cells/cm^2, and were cultured for 20 days. Assessment of compound permeability was subsequently conducted. The compounds were applied to the apical surface (A) of cell monolayers and compound permeation into the basolateral (B) compartment was measured. This was performed in the reverse direction (B-A) to investigate active transport. A permeability coefficient value, Papp, for each compound, a measure of the rate of permeation of the compound across the membrane, was calculated. Compounds were grouped into low (Papp</=[…]) or high (Papp>/=[…]) absorption potential based on comparison with control compounds with established human absorption.
For assessment of a compound's ability to undergo active efflux, the ratio of basolateral (B) to apical (A) transport compared with A to B was determined. Values of B-A/A-B>/=1.0 indicated the occurrence of active cellular efflux. All of the compounds tested through the Caco-2 permeability screen had Papp values >/=[…].

On to `CN1CCN(Cc2cc3nc(-c4cccc(O)c4)nc(N4CCOCC4)c3s2)CC1` [PI540], for which the B-A/A-B asymmetry index entry was “less than 1.0”.

For the origin of these results see US8946217B2, “Pharmaceutical compounds” (F. Hoffman-La Roche AG, priority 2005, dated 2015).
